One molecule from patent US11028061B2, “Modulators of myocyte lipid accumulation and insulin resistance and methods of use thereof” (Sanford Burnham Prebys Medical Discovery Institute, priority 2015, dated 2021) can be followed below.

Structures are written as SMILES.

One assay relates to human skeletal myotubes. Briefly: Triglyceride accumulation in oleate-loaded human skeletal myotubes. Type of assay: cell-based. The settings on record: Myotube, 100 μM oleate 24 hours, read-out: EC50, inhibition of TAG accumulation. On the procedure:
Human skeletal myotubes were differentiated for 8 days. On day 7, 100 μM of oleic acid complexed to fatty acid-free BSA was added to the cells with the indicated concentration of test compound for 24 hours. Following incubation with oleate and compound, cells were formaldehyde fixed and stained with AdipoRed™ (Lonza). Triglyceride accumulation was measured using signal intensity at excitation 540/emission 590 nm (Bio-Tek Instruments, Inc.). Dose response curves were generated in Prism 6 (GraphPad Software). EC50 values were calculated using non-linear regression analysis. For biochemical measurement of triglyceride, human skeletal myotubes were incubated with oleate-BSA and test compound as described above. After 24 hour incubation, cells were collected with a lysis buffer containing 0.1% IGEPAL CA-630 (Sigma-Aldrich) in PBS. The harvested cells were sonicated for 5 seconds and then centrifuged at 10,000×g for 10 minutes at 4° C. The supernatant was removed and stored on ice. TAG levels were quantified using Infinity™ Triglycerides Liquid Stable Reagent (Thermo Scientific), following the manufacturer's instructions for colorimetric assay.
Student's t-test, Mann Whitney test, one-way ANOVA with Bonferroni post hoc test, or two-way ANOVA with Tukey post hoc test was performed to determine statistical significance as indicated. […]

A further assay relates to primary human myotubes. Briefly: Fatty acid uptake (3H-oleate). In kind it is cell-based. The settings on record: 10 μM, 24 hours. On the procedure: FIGS. 1A-1C show SBI-477 as a small molecule inhibitor of neutral lipid accumulation in human skeletal myotubes. […] Data is shown as percent of DMSO vehicle control. Representative of >5 experiments. FIGS. 1B and 1C show dose-dependent inhibition of myocyte TAG accumulation by SBI-477. FIG. 1B—primary human myotubes were incubated with the indicated concentrations of SBI-477, 1 μM triascin C, 1 μM A922500 (DGAT inhibitor) or vehicle control with 100 μM oleate for 24 hours. Fatty acid free bovine serum albumin (BSA) was included as non-lipid loading control. Bars represent mean triglyceride level normalized to total protein±SD. *p<0.001 vs. oleate/vehicle control by one-way ANOVA with Bonferroni post hoc test. FIG. 1C—primary human myotubes were incubated with 10 μM SBI-477 or vehicle control for 24 hours. Fatty acid (FA) uptake was measured as cellular uptake of 3H-oleate. Bars represent fatty acid uptake normalized to the vehicle control. FIGS. 1D-1F show the effect of SBI-477 on FAO rates in human skeletal myotubes. […] FAO rates were determined by 3H-palmitate oxidation (n=5). […] Total cellular triglyceride levels were determined following incubation with SBI-477 (10 μM) for 24 hours with etomoxir (50 μM) in the absence (FIG. 1E) or presence of 1 mM carnitine (FIG. 1F) (n=4). *p<0.05 vs. vehicle control.

The subject of a further assay is MGAT1/2/3. In words: Direct inhibition of MGAT1/2/3 activity. In kind it is biochemical. The settings on record: data not shown.
The next assay deals with human TXNIP promoter. Briefly: TXNIP promoter luciferase reporter assay in H9c2 myocytes. Particulars: 24 hours. In kind it is cell-based, rat. As for the experimental part:
Transient transfections were performed using Attractene (Qiagen) according to the manufacturer's protocols. A full length (1.5 kb) and two serial deletion (1.0 kb and 0.5 kb) reporters of the human TXNIP promoter were generously provided by Dr. Fumihiko Urano (Washington University School of Medicine). Mutation of the carbohydrate-responsive elements (ChoREs) of the reporters was generated by QuikChange II Site-Directed Mutagenesis kit (Agilent). H9c2 myoblast cells (ATCC) were cotransfected with 700 ng of the reporter and 25 ng of CMV promoter driven Renilla luciferase as a control for transfection efficiency. Eighteen hours after transfection, the cells were cultured in DMEM supplemented with 1% fetal bovine serum to induce differentiation for 4 days. SBI-477 was added during the last 24 hours at the indicated concentration. After compound incubation, luciferase activity was measured using the Dual-Glo luciferase assay system (Promega) according to the manufacturer's protocols.

As to `COc1ccc(-c2csc(NC(=O)c3ccc(OCC(=O)N4CCOCC4)c(OC)c3)n2)cc1` [Cpd. 7, 3-methoxy-N-(4-(4-methoxyphenyl)thiazol-2-yl)-4-(2-morpholino-2-oxoethoxy)benzamide], the half-maximal effective concentration (EC50) with human skeletal myotubes was about 1 µM. Also, in the assay on primary human myotubes, the “Cellular fatty acid uptake” value was “not due to blocking cellular fatty acid uptake”. The “Direct inhibition of MGAT1/2/3 activity” value with MGAT1/2/3 is given as “not found that SBI-477 directly inhibits”. Besides, the “TXNIP promoter activity (luciferase)” value with human TXNIP promoter is “decreased promoter activity in a dose dependent manner”.
